“Also recorded” adds a separate entry of the source. Square brackets hold non-standard residues; d marks the D form. Ends that are not written are not given here. Bip = N[C@@H](Cc1ccc(-c2ccccc2)cc1)C(=O)O
Legend:
[1] = system: C57BL/6J mice fed a cholate-containing high fat diet (HFC); assay: Effect of single bolus injections of peptides on plasma lipoprotein profile; assay type: in vivo, mouse
Procedure: Effect of single bolus injections of peptides on plasma lipoprotein profile—To monitor effect of peptides on plasma cholesterol levels and its distribution among the different lipoprotein classes, the nonradioiodinated free peptides (100 μg in 100 μl of PBS) were injected intravenously into the tail vein of nonfasted C57BL/6J wild type mice, which have been placed on high fat cholate-containing diet four days prior to experiment. To control for the effect of external- and/or internal nonspecific factors (stress of handling, anesthetic, blood drawing) on plasma lipoprotein profile, a similar group of mice was injected with only PBS. Different groups of mice were sacrificed before and at various times after injections and blood was drawn by retroorbital puncture and subjected to low speed centrifugation at 4° C. to obtain the plasma. Plasma samples were obtained, combined within each group (4 mice), and subjected to gel filtration chromatography on a Superose 6 (HR 10/30 column, FPLC) to monitor cholesterol lipoproteins distribution and agarose gel electrophoresis (Paragon Systems) to monitor phospholipid lipoproteins distribution.
(§1) To monitor cholesterol distribution among the different lipoprotein classes, plasma samples were combined within each group (usually 4-6 mice per group), and subjected to FPLC size-exclusion chromatography on a Superose 6 (HR 10/30 column, Amersham-Pharmacia) using an isocratic 10 mM Tris/150 mM NaCl/1 mM EDTA buffer system at a flow rate of 0.15 ml/min. Fractions (0.15 ml) were collected into 96-well plates containing 0.055 ml of 1:1 mixture of 0.5% Triton X-100 and 20 mM Sodium Cholate. Total and free cholesterol in plasma fractions was determined by using the fluorescent method of W. Gamble, et al. (Gamble et al., 1978, Journal Lipid Res., 16: 1068-1070). 96-well plates were read on Dual-Scanning Microplate Spectrofluorometer Gemini XS (Molecular Devices). The areas under the lipoprotein peaks were quantified by using Unicorn software (Version 3.21.02). The amount of esterified cholesterol was assessed by subtraction of free cholesterol from total cholesterol.
Mice were divided into two groups—control and experimental. Each group contained 4 mice.
Effect of “frame-shift” derived peptides on lipoprotein metabolism (Single bolus injections)—We performed the functional frame-shift of the entire region of mouse apolipoprotein A1 where SEQ ID NO: 1 derived from (helix 6, Pro166-Pro188, precursor protein). Frame-shift was done in both directions (form N-to C- and from C- to N-Terminus). […] Mice were divided into two groups—control and experimental. Each group contained 4 mice. […] The data are expressed as percent of change of total cholesterol (TC) content of VLDL, IDL/LDL, and HDL classes in experimental mice relative to control (PBS injected) mice.
Effect of chemically modified derivatives of SEQ ID NO: 1 and peptides derived from other mouse apoA1 regions on mouse plasma lipoprotein profile (Single bolus injections)—To increase SEQ ID NO: 1 hydrophobicity, Phenyl Acetyl or Pivalic Acid were attached to N-Terminal Tyr residue of SEQ ID NO: 1, or Tyr residue was removed from N-terminus. […] Mice were divided into two groups—control and experimental. Each group contained 4 mice. […] The data are expressed as percent of change of total cholesterol (TC) content of VLDL, IDL/LDL, and HDL classes in experimental mice relative to control (PBS injected) mice.

[2] = system: C57BL/6J mice switched on HFC diet; assay: Long term effect of peptides on lipoprotein metabolism (7 days pumps, 160 hrs); assay type: in vivo, mouse; conditions: 160 hrs infusion, pumps 1 μl/hr
Procedure: (§2) Effect of time-released peptides on plasma lipoprotein profile—To determine relatively long-term effect of SEQ ID NO: 1 and its derivatives on plasma lipoprotein profile, the Alzet Mini-Osmotic pumps (220 ul), containing various peptides or PBS, were surgically inserted in canulated Chow fed C57BL/6J mice. The pumps with flow rate equal to 8 μl/hr were used for 20 hrs continuous infusion of peptides. The pumps with flow rate equal to 1 μl/hr were used for 160 hrs continuous infusions of peptides. At the end point (20 or 160 hrs after pumps insertion) mice were sacrificed, and blood was drawn by retroorbital puncture and subjected to low speed centrifugation at 4° C. to obtain the plasma. Bile was immediately removed from gall bladders using insulin syringes, and stored on ice until use.
To determine HDL cholesterol, low density lipoproteins were precipitated from plasma using a modified Burstein-Samaille method according to manufacturer's instructions (Boehringer Mannheim 543004), modifying only the ratio of reagent:water from 4:1 to 4:2. Gall bladder derived bile was diluted twice with deionized water, and cholesterol was determined using. Infinity reagents. 3α-Hydroxybile acids were quantified uiising a colorimetric-enzymatic method (Sigma 450).
as §1, with “Fractions (0.15 ml) were collected into 96-well plates containing 0.055 ml of 1:1 mixture of 0.5% Triton X-100 and 20 mM Sodium Cholate.” left out, “cholesterol. […]” for “cholesterol.”

PLTP = target: T1, PLTP (Mus musculus, UniProt P55065); assay: Effect of peptides on PLTP activity; assay type: biochemical; conditions: mouse plasma incubated with 0.4, 2, 5 and 10 ug peptide at RT for 30 min
T1 construct: Mouse plasma (source of enzyme), obtained from Chow fed mice and from mice fed with high fat cholate containing diet; from tissue; host or cells: serum/plasma of C57BL/6J male mice (chow-fed or high fat cholate diet for 4 days)
Procedure: Effect of peptides on PLTP activity—PLTP activity was measured using a fluorescent kit (Cardiovascular Targets, Inc., P7700). PLTP source was serum obtained from C57BL/6J male 2 months old mice, which were Chow-fed or maintained on high fat cholate containing diet for four days. 1× Mouse serum was preincubated with PBS or 0.4, 2, 5, and 10 μg of peptides at RT for 30 minutes. Following preincubation, the mixture was diluted 10 times, and 10 μl ([…] nest serum) was immediately mixed into reaction wells of pre-chilled 96-well plate, containing assay system (Cardiovascular Targets, Inc., P7700). The microplates were read at 37° C. in SpectraMax 190 (Molecular Devices), for 30 minutes.
Mouse plasma (source of enzyme), obtained from Chow fed mice and from mice fed with high fat cholate containing diet for 4 days, was incubated with PBS or the peptide of SEQ ID Nos: 34, 86, 91 and 96 (0.4, 2, 5, and 10 ug) at RT for 30 min. Reaction was started by addition of 0.3 μl of plasma/PBS or plasma/SEQ ID NO mixture to 100 μl of assay solution containing fluorescent substrate. PLTP activity was monitored on Spectrofluorometer for 20 min at 37° C. Each bar represents the Mean±SEM obtained from 3 independent experiments.

[3] = system: C57BL/6J mice switched on HFC diet; assay: Effect of time-released peptides on plasma lipoprotein profile (20 hrs pumps); assay type: in vivo, mouse; conditions: for plasma HDL cholesterol levels / plasma levels of HDL phospholipids / plasma levels of low density lipoproteins: 20 hrs continuous infusion, pumps 8 ul/hr; for activity upon infusion into mice for 20 hrs: 20 hrs infusion, FIG. 16
Procedure: as §2, §1
To monitor the distribution of phospholipid among the lipoprotein classes, plasma samples were combined within each group (usually 4-6 mice per group), and subjected to agarose gel electrophoresis, which was carried out using the Paragon system (Beckman Coulter) according to manufacturer's instructions, with following staining with Paragon Lipo Stain (Beckman Coulter 655910). Once dried, the gels were scanned on Personal Densitometer SI (Molecular Dynamics) and bands were quantified using ImageQuant™ software (Verssion 5.2).
Impact of SEQ ID NO: 1 on lipoprotein metabolism (20 hrs pumps)—To determine relatively long-term effect of SEQ ID NO: 1 on plasma lipoprotein profile, the Alzet Mini-Osmotic pumps, containing SEQ ID NO: 1 or PBS, were surgically inserted in canculated Chow fed C57BL/6J mice. The pumps flow rate was equal to 8 ul per hr, which provided the delivery amount of SEQ ID NO: 1 per hr as indicated for FIG. 9. Mice were switched on HFC diet immediately after surgery. 20 hrs later plasma samples were obtained, combined within each group (4 to 6 mice), and subjected to FPLC analysis and agarose gel electrophoresis for assessment of cholesterol and phospholipid distribution among the lipoprotein classes. […] The LDL lowering effect was attenuated with increase of SEQ ID NO: 1 concentration. This phenomenon can be explained by self-competition between free and LDL-bound form of SEQ ID NO: 1 for the liver lipoprotein binding sites. In contrast, HDL cholesterol levels were positively correlated with SEQ ID NO: 1 concentration.
Impact of SEQ ID NO: 1 structural derivatives (3 to 13 amino acid residues) on lipoprotein metabolism (20 hrs pumps)—To determine relatively long-term effect on plasma lipoprotein profile, the Alzet Mini-osmotic pumps, containing SEQ ID NO: 1 derivatives or PBS, were surgically inserted in canulated Chow fed C57BL/6J mice. The pumps flow rate was equal to 8 ul per hr, which provided the deliveries of 30-40 μg of peptides per hr. Mice were switched on HFC diet immediately after surgery. […]

[4] = system: LDLR−/− mice and A-I−/− mice; assay: Plasma clearance and tissue distribution of SEQ ID NO: 1-125I-LDL complexes; assay type: in vivo, mouse
Procedure: Plasma clearance and tissue distribution of SEQ ID NO: 1-LDL complexes—^125I-LDL (0.2 nmol) was incubated at 37° C. in PBS alone, or with 4 nmol of SEQ ID NO: 1. After 2 h, the mixture was dialyzed against PBS containing […] BHT. ^125I-LDL alone or SEQ ID NO: 1/^125I-LDL complex were injected intravenously into the tail vein of nonfasted mice under metofane anesthesia. Mice were bled at the certain time points after the injection by retroorbital bleeding into heparinized tubes. The blood was subjected to low speed centrifugation (1800 g, 4° C.) and the 10% TCA precipitable radioactivity of the plasma was measured. […] An incision was made in the […] vena cava to clear the perfusate. Within 15 min, the liver, kidneys, spleen, and heart were removed, cleaned, weighed, and counted for ^125I radioactivity. Entire organs were counted with exception of liver, which was counted in pieces. Radioactivity detected per organ or per 1 g of wet tissue was expressed as a percent of the initial total injected radioactivity that was TCA precipitable.
To determine if SEQ ID NO: 1 can associate with human LDL, we attempted to form the complex of ^125I-SEQ ID NO: 1 with isolated human LDL. […] To determine if SEQ ID NQ: 1 influences lipoprotein transport to the liver, we injected the ^125-LDL alone or in complex with SEQ ID NO: 1 into LDLR−/− mice (no LDL-receptor) and A-I−/− mice, which have a functional hepatic LDL-receptor. […] To assess the contribution of LDL-receptors alone, the binding of [^125I-LDL] and [125I-LDL-SEQ ID NO: 1] to the liver of LDLR−/− mice was subtracted from their respective binding to the liver of A-I−/− mice, and data were normalized per gram of wet tissue. […] Influence of SEQ ID NO: 1 on ^125I-LDL binding to kidney, spleen, lung, heart, testis, adrenal, and prostate is shown in FIG. 8. It is noteworthy that no increase in 125I-LDL-SEQ ID NO: 1 complex binding to the heart was observed.

T1 sequence (P55065 18-493): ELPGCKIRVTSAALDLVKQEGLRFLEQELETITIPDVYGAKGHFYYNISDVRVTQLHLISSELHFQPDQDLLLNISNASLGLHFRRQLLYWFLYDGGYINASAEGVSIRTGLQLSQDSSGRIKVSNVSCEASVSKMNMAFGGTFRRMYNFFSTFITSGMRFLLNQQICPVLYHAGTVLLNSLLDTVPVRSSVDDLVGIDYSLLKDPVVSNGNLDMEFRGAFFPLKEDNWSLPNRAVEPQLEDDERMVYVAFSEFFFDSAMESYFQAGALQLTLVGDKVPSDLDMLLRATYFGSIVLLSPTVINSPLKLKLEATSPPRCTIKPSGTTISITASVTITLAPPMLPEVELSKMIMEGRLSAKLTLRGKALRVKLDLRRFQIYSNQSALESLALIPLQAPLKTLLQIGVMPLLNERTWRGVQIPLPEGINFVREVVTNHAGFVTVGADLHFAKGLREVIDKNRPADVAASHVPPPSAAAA

effect on PLTP activity (PLTP)	Substance	amount of phospholipid in the HDL zone [2]	plasma HDL cholesterol levels [3]	plasma levels of HDL phospholipids [3]	plasma levels of low density lipoproteins [3]	also measured
activation of PLTP	efr ([dE]-[dF]-[dR]) [SEQ ID NO: 96]					
did not have any significant effect	dRMRTH ([dD]RMRTH) [SEQ ID NO: 36]					activity upon infusion into mice for 20 hrs [3]: did not show significant activity
activation of PLTP	erf ([dE]-[dR]-[dF]) [SEQ ID NO: 86]	increase				
did not have any significant effect	rDRMRTh ([dR]DRMRT[dH]) [SEQ ID NO: 35]		decrease	decrease	increase	activity upon infusion into mice for 20 hrs [3]: did not show significant activity

The remaining lines, values behind:

Substance	effect on PLTP activity (PLTP)	amount of phospholipid in the HDL zone [2]	plasma HDL cholesterol levels [3]	plasma levels of HDL phospholipids [3]	plasma levels of low density lipoproteins [3]	also measured
THVDSLRTQLAP (Ac-THVDSLRTQLAP-NH2) [SEQ ID NO: 7]						impact on plasma HDL-C levels ([1]; single bolus i.v. 100 μg): marked HDL-C elevating properties
E-BIP-R (Glu-[Bip]-Arg) [SEQ ID NO: 91]	activation of PLTP	increase				
EEFRDR [SEQ ID NO: 87]			decrease	decrease	increase	
YEFRDRMRTH [SEQ ID NO: 1]			elevated	elevated	dramatic decrease	plasma clearance of 125I-LDL-SEQ ID NO: 1 complex ([4]; ApoA1−/− mice, compared to 125I-LDL alone): enhanced plasma clearance; liver-bound 125I-LDL after complexing with SEQ ID NO: 1 ([4]; both mouse genotypes (LDLR−/− and A-I−/−), compared to 125I-LDL alone): significant increase; complex binding to the LDL-receptors (liver binding in A-I−/− minus LDLR−/− mice) ([4]; compared to 125I-LDL alone, per gram of wet tissue): substantial increase; 125I-LDL-SEQ ID NO: 1 complex binding to the heart ([4]; mouse, in vivo): no increase; duration of effect after single bolus injection [1]: up to 180 min; impact on plasma HDL-C levels ([1]; single bolus i.v. 100 μg): slight but significant decrease; impact on VLDL level ([1]; single bolus i.v. 100 μg, entire time course): no significant impact; impact on plasma IDL/LDL, low density lipoproteins ([1]; single bolus i.v. 100 μg, 90, 120 and 180 min after injection): Significant lowering; also recorded: strongest impact; in vivo half-life: 2 to 3 h
EFR [SEQ ID NO: 34]	activation of PLTP	increase				

Source: US20050159362A1, “Mediators of reverse cholesterol transport for the treatment of hypercholesterolemia” (priority 2003, published 2005)
